Measurements as given in ChEMBL document CHEMBL4024791, “Identification of Morpholino-2H-pyrido[3,2-b][1,4]oxazin-3(4H)-ones as Nonsteroidal Mineralocorticoid Antagonists” (J Med Chem, 2018).
Calls of active or inactive are those of the source. The rule behind the calls is not given here.

Key:
[1] = Intrinsic clearance in human liver microsomes
[2] = Distribution coefficient, log D of the compound; assay type: physicochemical; details: octanol/water
[3] = target: T1, Mineralocorticoid receptor (Homo sapiens, UniProt P08235)
T1 sequence (P08235 whole entry): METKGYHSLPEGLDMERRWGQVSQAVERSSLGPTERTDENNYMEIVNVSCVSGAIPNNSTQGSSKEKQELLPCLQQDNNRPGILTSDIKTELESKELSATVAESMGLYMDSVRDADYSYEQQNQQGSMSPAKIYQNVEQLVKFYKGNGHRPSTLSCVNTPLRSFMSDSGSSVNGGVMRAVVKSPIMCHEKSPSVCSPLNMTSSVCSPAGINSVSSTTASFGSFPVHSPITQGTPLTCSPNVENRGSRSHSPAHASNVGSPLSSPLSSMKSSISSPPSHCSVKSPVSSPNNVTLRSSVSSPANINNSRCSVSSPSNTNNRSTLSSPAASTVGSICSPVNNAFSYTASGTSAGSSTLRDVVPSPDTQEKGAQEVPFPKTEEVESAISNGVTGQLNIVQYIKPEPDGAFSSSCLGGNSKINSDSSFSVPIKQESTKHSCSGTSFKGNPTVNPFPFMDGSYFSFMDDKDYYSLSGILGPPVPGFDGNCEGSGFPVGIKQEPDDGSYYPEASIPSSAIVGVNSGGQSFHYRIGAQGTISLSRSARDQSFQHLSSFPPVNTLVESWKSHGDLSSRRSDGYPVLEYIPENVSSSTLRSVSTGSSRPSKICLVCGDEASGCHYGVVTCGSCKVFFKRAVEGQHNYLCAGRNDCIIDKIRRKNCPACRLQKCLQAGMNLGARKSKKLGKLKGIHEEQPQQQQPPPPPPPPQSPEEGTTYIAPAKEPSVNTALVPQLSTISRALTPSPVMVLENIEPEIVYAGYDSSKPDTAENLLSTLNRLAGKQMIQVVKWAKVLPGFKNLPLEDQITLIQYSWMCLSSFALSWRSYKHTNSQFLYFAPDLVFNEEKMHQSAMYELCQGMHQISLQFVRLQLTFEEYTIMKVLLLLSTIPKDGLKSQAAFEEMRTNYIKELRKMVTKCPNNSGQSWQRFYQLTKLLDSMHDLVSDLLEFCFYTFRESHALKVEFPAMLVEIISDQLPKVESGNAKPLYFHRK
Description: Antagonist activity at human GAL4-DBD fused MR ligand binding domain transfected in human Huh7 cells co-expressing GAL4-RE-Luc assessed as reduction in aldosterone-induced luciferase activity after 16 hrs in presence of serum by luciferase reporter gene assay

[4] = target: T1, Mineralocorticoid receptor; remark: listed apart in the source
Description: Displacement of [3H]-aldosterone from human GST-tagged MR ligand binding domain after 4 hrs by liquid scintillation counting

Rattus norvegicus = assay: In vivo antagonist activity at MR in Wistar rat assessed as increase in urinary Na+ /K+ ratio at 100 mg/kg, po administered as single dose measured after 2 to 6 hrs post dose; assay type: functional, organism-based
[5] = Clearance in rat at 1 mg/kg, iv; details: in vivo
[6] = Intrinsic clearance in rat liver microsomes

Row | microsomal CLint [1] | logD [2] | IC50 [3] | IC50 [4] | clearance [5] | microsomal CLint [6] | Compound | inhibition (Rattus norvegicus)
1 | 14 µL/min/mg | 3.1 | 33 nM | 13 nM | – | – | C[C@@H]1CN(c2ccc3c(n2)NC(=O)CO3)[C@H](c2ccccc2F)CO1 | –
2 | 8.9 µL/min/mg | 2.4 | – | 1180 nM | – | – | O=C1COc2ccc(N3CCOC[C@H]3c3ccccc3)nc2N1 | –
3 | 14.8 µL/min/mg | 1.8 | 10000 nM | > 10000 nM | 52 mL/min/kg | 44 µL/min/mg | O=C1COc2ccc(N3C[C@@H](CO)OC[C@H]3c3ccccc3)nc2N1 | –
4 | 15.2 µL/min/mg | 3.3 | – | 86 nM | – | – | CC1(C)CN(c2ccc3c(n2)NC(=O)CO3)[C@H](c2ccccc2)CO1 | –
5 | – | 2.7 | – | – | – | – | C[C@H]1CN(c2ccc3c(n2)NC(=O)CO3)[C@H](c2ccccc2)CO1 | –
6 | 8 µL/min/mg | 2.5 | 358 nM | 276 nM | – | – | COC[C@@H]1CN(c2ccc3c(n2)NC(=O)CO3)[C@H](c2ccccc2)CO1 | –
7 | 11.9 µL/min/mg | 2.3 | – | 56 nM | – | – | N#CC[C@@H]1CN(c2ccc3c(n2)NC(=O)CO3)[C@H](c2ccccc2)CO1 | –

Second part, the compound before the results:

Row | Compound | microsomal CLint [1] | logD [2] | IC50 [3] | IC50 [4] | clearance [5] | microsomal CLint [6] | inhibition (Rattus norvegicus)
8 | C[C@@H]1CN(c2ccc3c(n2)NC(=O)CO3)[C@H](c2cccc(F)c2)CO1 | 9.6 µL/min/mg | 3.1 | – | – | – | – | –
9 | C[C@@H]1CN(c2cnc3c(c2)NC(=O)CO3)[C@H](c2ccccc2)CO1 | 13.9 µL/min/mg | 1.9 | – | 2220 nM | – | – | –
10 | COC(=O)[C@@H]1CC2=CC(=O)CC[C@]2(C)[C@@]23O[C@@H]2C[C@@]2(C)[C@@H](CC[C@@]24CCC(=O)O4)[C@H]13 | – | – | – | – | – | – | Active
11 | C[C@@H]1CN(c2cc3c(cn2)OCC(=O)N3)[C@H](c2ccccc2)CO1 | 12.6 µL/min/mg | 2.5 | – | 109 nM | – | – | –
12 | C[C@@H]1CN(c2ccc3c(c2)NC(=O)CO3)[C@H](c2ccccc2)CO1 | 15.8 µL/min/mg | 3.1 | – | 13 nM | 54 mL/min/kg | 377 µL/min/mg | –
13 | C[C@@H]1CN(c2ccc3c(n2)NC(=O)CO3)[C@H](c2ccc(F)cc2)CO1 | 8 µL/min/mg | 3.2 | – | – | – | – | –
14 | C[C@@H]1CN(c2ncc3c(n2)NC(=O)CO3)[C@H](c2ccccc2)CO1 | 8 µL/min/mg | 2.7 | – | 113 nM | 95 mL/min/kg | 146 µL/min/mg | –
